Data on 20 compounds can be found in ChEMBL document CHEMBL3390846, “Synthesis and biological activity of new pyridone diaryl ether non-nucleoside inhibitors of HIV-1 reverse transcriptase” (Medchemcomm, 2010).

In assay [1] the target is Human immunodeficiency virus type 1 reverse transcriptase (Human immunodeficiency virus 1, UniProt Q72547). Nature of the assay: Inhibition of polymerase activity of wild type HIV-1 LAI reverse transcriptase.
The target of assay [2] is Human immunodeficiency virus type 1 reverse transcriptase (Human immunodeficiency virus 1, UniProt Q72547, K103N). Briefly: Inhibition of polymerase activity of NNRTI-resistant HIV-1 LAI reverse transcriptase K103N mutant.
Assay [3] addresses Human immunodeficiency virus type 1 reverse transcriptase (Human immunodeficiency virus 1, UniProt Q72547, Y181C). Nature of the assay: Inhibition of polymerase activity of NNRTI-resistant HIV-1 LAI reverse transcriptase Y181C mutant.
The test system of assay [4] is Human immunodeficiency virus 1. Nature of the assay: Antiviral activity against wild type HIV-1 LAI infected in human MT4 cells assessed as inhibition of viral replication after 5 days by MTT assay. The format is functional, organism-based. The conditions noted are these: Human immunodeficiency virus 1, LAI, MT4, 120 h. Background: Formazan colour is commonly taken as a measure of viable cells.

The test system of assay [5] is Human immunodeficiency virus 1. Nature of the assay: Antiviral activity against wild type HIV-1 LAI infected in human MT4 cells assessed as inhibition of viral replication after 5 days by MTT assay in presence of 40% human serum. The format is functional, organism-based. As to conditions: Human immunodeficiency virus 1, LAI, MT4, 120 h.
Assay [6] concerns Human immunodeficiency virus 1. Briefly: Antiviral activity against NNRTI-resistant HIV-1 LAI harboring reverse transcriptase K103N mutant infected in human MT4 cells assessed as inhibition of viral replication after 5 days by MTT assay. The format is functional, organism-based. As to conditions: Human immunodeficiency virus 1, LAI, MT4, 120 h.
Assay [7] concerns Human immunodeficiency virus 1. Nature of the assay: Antiviral activity against NNRTI-resistant HIV-1 LAI harboring reverse transcriptase Y181C mutant infected in human MT4 cells assessed as inhibition of viral replication after 5 days by MTT assay. The format is functional, organism-based. As to conditions: Human immunodeficiency virus 1, LAI, MT4, 120 h.
The subject of assay [8] is Human immunodeficiency virus 1. Briefly: Antiviral activity against wild type HIV-1 LAI infected in human MT4 cells assessed as protection against virus-induced cell death after 5 days by MTT assay. The format is functional, organism-based. As to conditions: Human immunodeficiency virus 1, LAI, MT4, 120 h.
Assay [9] deals with Human immunodeficiency virus 1. Nature of the assay: Potency index, ratio of efavirenz IC50 to compound IC50 for wild type HIV-1 LAI in presence of 40% human serum. The assay is classed as functional.

Molecules are shown by their SMILES.

A word on the IC50: it is the concentration that gives 50% inhibition.

Take `Cc1[nH]c(=O)c(Cl)c(Oc2cc(Cl)cc(C#N)c2)c1CCOc1ccccc1`: the IC50 in [1] came out at 6 nM; in assay [2], 5 nM; in [3] it was 6 nM; in assay [4], 4 nM; in assay [5] it was 13 nM; in assay [6], 24 nM. In addition, in assay [7], the IC50 was found to be 11 nM.
With `N#Cc1cc(Cl)cc(Oc2c(CCOc3ccncc3)c[nH]c(=O)c2Br)c1`, the IC50 was 10 nM in [1], 14 nM in assay [2] and 8 nM in assay [3].
Consider `N#Cc1cc(Cl)cc(Oc2c(F)c(CCc3ccncc3)[nH]c(=O)c2Br)c1`, for which the IC50 in [1] amounted to 2 nM; in [2], 1 nM; in assay [3], 1 nM; in [4], 5 nM; in assay [5] it was 23 nM; in assay [7], 11 nM.
As to `N#Cc1cc(Cl)cc(Oc2c(COCc3ccncc3)c[nH]c(=O)c2Br)c1`, the IC50 is 21 nM in [1]; 13 nM in [2]; 11 nM in assay [3]; 7 nM in [4]; 10 nM in assay [5]; 13 nM in [6]. Also, in assay [7], the IC50 is 19 nM.
Take `O=C1Nc2ccc(Cl)cc2[C@@](C#CC2CC2)(C(F)(F)F)O1` [EFAVIRENZ]: the IC50 turned out to be 65 nM in [6] and 3 nM in assay [7].
As to `N#Cc1cc(Cl)cc(Oc2cc(CCc3cccnc3)[nH]c(=O)c2Cl)c1`, the IC50 came to 22 nM in [1], 16 nM in assay [2] and 22 nM in assay [3].
Take `N#Cc1cc(Cl)cc(Oc2cc(CCc3ccccn3)[nH]c(=O)c2Cl)c1`: the IC50 turned out to be 21 nM in assay [1], 78 nM in [2] and 33 nM in assay [3].
Taken in the same sequence, the figures for `N#Cc1cc(Cl)cc(Oc2cc(CCc3nc4ccccc4o3)[nH]c(=O)c2Cl)c1` were 6 nM, 16 nM and 4 nM.
As for `N#Cc1cc(Cl)cc(Oc2cc(CCc3ccccc3)[nH]c(=O)c2Cl)c1`, it took 8 nM to reach half-maximal inhibition in assay [1] (IC50).
As for `Cc1[nH]c(=O)c(Br)c(Oc2cc(Cl)cc(C#N)c2)c1Cc1ccccc1`, the IC50 in assay [1] came out at 10 nM; in [2] it was 7 nM; in [3], 8 nM; in [4], 6 nM; in [5], 32 nM; in assay [6] it was 16 nM. In addition, the IC50 in assay [7] amounted to 29 nM.
Regarding `N#Cc1cc(Cl)cc(Oc2c(F)c(CC(=O)N3CCc4ccccc4C3)[nH]c(=O)c2Br)c1`, the values for the IC50 in [1] and in [8] were 12 nM and 50 nM, respectively.
`N#Cc1cc(Cl)cc(Oc2cc(CCc3cccc(Cl)c3)[nH]c(=O)c2Cl)c1`: the IC50 was 12 nM in [1], 6 nM in assay [2] and 7 nM in assay [3].
With `CN(C)c1c(Oc2cc(Cl)cc(C#N)c2)cc(CC(=O)N2CCc3ccccc3C2)[nH]c1=O`, the IC50 turned out to be 220 nM in assay [1] and 35 nM in assay [8].
In assay [1], `N#Cc1cc(Cl)cc(Oc2c(F)c(CCc3ccccc3)[nH]c(=O)c2Cl)c1` had an IC50 of 7 nM.
`N#Cc1cc(Cl)cc(Oc2c(CCOc3cccnc3)c[nH]c(=O)c2Br)c1`: the half-inhibitory concentration (IC50) in assay [1] stood at 11 nM; in assay [2], 16 nM; in assay [3], 8 nM.
With `N#Cc1cc(Cl)cc(Oc2c(Cc3ccccc3)c[nH]c(=O)c2Br)c1`, the IC50 in [1] is 34 nM; in [2], 71 nM; in assay [3], 41 nM.
For `N#Cc1cc(Cl)cc(Oc2cc(CC(=O)N3CCc4ccccc4C3)[nH]c(=O)c2Cl)c1`, the IC50 is 30 nM in assay [1] and 35 nM in assay [8].
Regarding `N#Cc1cc(Cl)cc(Oc2c(F)c(CCc3cccc(Cl)c3)[nH]c(=O)c2Br)c1`, the IC50 was found to be 17 nM in [1], 8 nM in [2] and 8 nM in [3].
`N#Cc1cc(Cl)cc(Oc2cc(CCc3ccncc3)[nH]c(=O)c2Cl)c1`: the IC50 in assay [1] is 19 nM; in assay [2], 14 nM; in assay [3], 21 nM.
`Cc1[nH]c(=O)c(Cl)c(Oc2cc(Cl)cc(C#N)c2)c1CCCc1ccncc1`: the IC50 in assay [1] was 4 nM; in assay [2], 2 nM; in [3], 3 nM; in [4] it was 2 nM; in assay [5], 5 nM; in assay [7], 6 nM. Besides, in [9], the “Ratio IC50” value is 3.
